One may read the refractive index as the speed of light in vacuum divided by its phase velocity in the sample.

Numbers after ± are expanded uncertainties.

The series can be described thus: refractive index (Na D-line) (dimensionless). The settings on record: 298.15 K; 101.33 kPa; Liquid; Standard Abbe refractometry.
In the case of `O=Cc1ccco1` [2-furaldehyde], the refractive index stood at 1.52263 ± 0.001.
Turning to `COC(C)(C)C` [2-methoxy-2-methylpropane], the refractive index stood at 1.36594 ± 0.001.
As to `CC(C)=O` [acetone], the refractive index was 1.35553 ± 0.001.
On to `O` [water], for which the refractive index was found to be 1.33249 ± 0.001.
